# In patent US6686334B2, “Use of inhibitors of protein kinase C epsilon to treat pain” (Regents of the University of California, priority 1998, dated 2004):
# “Also recorded” adds a separate entry of the source. Where two headings read alike, the source gives them in different places.
# Legend:
# [1] = system: isoproterenol-induced hyperalgesia; experiment: Isoproterenol-induced mechanical hyperalgesia, paw withdrawal threshold; format: in vivo, rat; conditions: for Effect on isoproterenol-induced hyperalgesia: rat hindpaw, intradermal
# [2] = system: tetrodotoxin-resistant sodium current (TTX-RINa); format: cell-based, rat; conditions: for Effect on epinephrine-induced potentiation of TTX-RINa: 1 μM epinephrine, propranolol 2 μM, phentolamine 5 μM, Rp-cAMPs 100 μM, BIM 100 μM
# [3] = system: small diameter DRG neurons; experiment: Current-clamp (perforated-patch whole-cell) excitability of cultured DRG neurons; format: cell-based, rat
# [4] = system: epinephrine-induced hyperalgesia; experiment: Epinephrine-induced mechanical hyperalgesia, paw withdrawal threshold (Ugo Basile Analgesimeter); format: in vivo, rat; conditions: for Effect on epinephrine-induced hyperalgesia: rat hindpaw, intradermal, mechanical stimulus; for Percentage decrease in nociceptive threshold in response to epinephrine: epinephrine 100 ng, DAMGO, SQ22536, BIM, Rp-cAMPs 1 μg, WIPTIDE 0.1 μg, larger value = more hyperalgesia
# Experimental: The roles of PKC, protein kinase A (“PKA”) and the μ-opioid receptor in mediating epinephrine-induced hyperalgesia were assessed by measuring the effects of: Rp-adenosine 3′, 5′-cyclic monophosphate (“Rp-cAMPs”) and WIPTIDE, both inhibitors of PKA; SQ22536, an inhibitor of adenylyl cyclase, an enzyme activated by PKA; bisindolymaleimide (“BIM”), a nonselective inhibitor of PKC isozymes; and [D-Ala^2, N-Me-Phe^4, Gly^5-ol]-enkephalin (“DAMGO”), μ-opioid receptor agonist. The dose for each inhibitor was 1 μg, except for WIPTIDE, which was administered in a 100 ng dose.
# [5] = system: PGE2-induced hyperalgesia; conditions: PGE2 100 ng; inhibitor 1 μg; data from Khasar 1995 or Taiwo and Levine 1991; cited from earlier work
# [6] = system: vincristine-induced hyperalgesia; experiment: Vincristine-induced hyperalgesia, mechanical stimuli (Ugo Basile analgesymeter); format: in vivo, rat; conditions: vincristine 100 μg/kg intravenously daily, after the second day
# Experimental: (§1) Humans undergoing chemotherapy frequently experience hyperalgesia. Vincristine is a chemotherapeutic drug known to cause such hyperalgesia, and a rat model of vincristine-induced hyperalgesia was established as follows. Vincristine (100 μg/kg in saline; Sigma Chemical Catalog) was administered intravenously daily to each of 32 rats over a period of two weeks.
# To determine whether administration of an inhibitor of PKCε would lessen vincristine-induced hyperalgesia in the rat model described above, on the 13th day of vincristine treatment, rats received no treatment (n=16) or intradermal injections of sterile water followed by intradermal injections of either 1 μg εV1-2, a PKCε inhibitory peptide (n=8; labeled “PKCεI” on FIG. 12A), or 1 μg S-VεV1-2, a scrambled version of the εV1-2 peptide (n=8; labeled “PCKεI SCR” on FIG. 12A), 20-30 minutes before administration of a mechanical stimulus.
# [7] = Rotorod analysis of motor deficits; format: in vivo, rat; conditions: vincristine 100 μg/kg intravenously daily
# Experimental: as §1
# wild-type mice = experiment: von Frey hair paw withdrawal frequency in mice; format: in vivo, mouse; conditions: 100 ng intraplantar, wild-type mice, 4, 6.9 or 14.8 grams
# Experimental: Mechanical, thermal and chemical nociception were evaluated in wild-type and PKCε-mutant mice. For both wild-type (n=8) and PKCε-mutant (n=8) mice, the basal mechanical nociceptive threshold was measured as the frequency at which mice withdrew their paws after being poked in the hindpaw with a von Frey Hair (“VFH”; Stoelting Co.) applying a force of 4, 6.9 or 14.8 grams.
# [8] = system: prolonged PGE2-induced hyperalgesia; experiment: Prolonged hyperalgesia in carrageenan-sensitized rats (chronic inflammatory pain model); format: in vivo, rat; conditions: 1 μg at the same time as carrageenan; PGE2 72 or more hours later
# From the text: In order to investigate the role, if any, of PKCε in chronic inflammatory pain, the following model system for chronic inflammatory pain was developed. Rats received intradermal hind paw injections of carrageenan, an inflammatory agent. […] This was considered an acute response to the carrageenan-induced inflammation. Although administration of Prostaglandin E2 (“PGE2”), 5-hydroxytryptamine (“5-HT,” serotonin) or CGS-21680 (an adenosine A2-selective receptor agonist) normally causes untreated rats (that is, rats that have not received carrageenan injections) to experience hyperalgesia lasting up to 6 hours, the hyperalgesia experienced by carrageenan-sensitized rats following administration of any one of these substances lasted up to 24 hours.
# The prolonged PGE2-induced hyperalgesia normally seen in carrageenan-sensitized rats was inhibited by administration of BIM or εV1-2.
# To examine whether protein kinase C modulates the processes by which a brief inflammatory event causes prolonged hyperalgesia many days later, rats received carrageenan and 1 μg BIM injections at the same time. Hyperalgesia was measured 72 hours later, when the rats were treated PGE2. […]
# [9] = system: diabetes-induced hyperalgesia; experiment: Streptozotocin diabetes-induced hyperalgesia, mechanical stimuli; format: in vivo, rat; conditions: 1 μg intradermal after sterile water, four weeks after streptozotocin 70 mg/kg
# Experimental: Persons with uncontrolled or poorly controlled diabetes frequently experience hyperalgesia. The role of PKCε in diabetic neuropathy was examined in a model of diabetes in which male Sprague-Dawley rats receive subcutaneous injection of streptozotocin (70 mg/kg), a pancreatic β-cell toxin. These rats display hyperglycemia and glucosuria within 24 hours after the injection and show decreased nociceptive thresholds in response to mechanical stimuli administered by Ugo Basile analgesymeter in the hind paw after one week (Ahlgren, S. C. et al, J. Neurophysiology, 68, 2077-2085 (1992); Ahlgren, S. C. and Levine, J. D., Neuroscience 52, 1049-1055 (1993)). Four weeks after the streptozotocin injection, each rat received no treatment (n=8) or an intradermal injection of sterile water followed by a intradermal injections of (1) 1 μg bisindolymaleimide, a protein kinase C inhibitor (n=4; labeled “BIM” on FIG. 12B), (2) 1 μg εV1-2, a PKCε inhibitory peptide (n=8; labeled “PKCεI” on FIG. 12B), or (3) 1 μg S-VεV1-2, a scrambled version of the εV1-2 peptide (n=4; labeled “PCKεI SCR” on FIG. 12B) and were subsequently exposed to mechanical stimuli.
# [10] = system: carrageenan-induced hyperalgesia; experiment: Carrageenan-induced acute hyperalgesia, mechanical stimuli; format: in vivo, rat; conditions: 1 μg injected at the same time as carrageenan
# Experimental: The acetic acid writhing experiments reported in Example 3 indicate that PKCε contributes to inflammatory pain. To investigate whether PKCε mediates hyperalgesia induced by other inflammatory agents, rats received intradermal 10 μl injections of a 1% solution of carrageenan, a potent irritant (Ferreira, S. H. et al, Nature 334, 698-700 (1988)) and three and a half hours later, the rats received no treatment (n=12; labeled “Car-4” on FIG. 13) or intradermal injections of sterile water followed by intradermal injections of either 1 μg εV1-2, a PKCε inhibitory peptide (n=6; labeled “εV” on FIG. 13), or 1 μg S-VεV1-2, a scrambled version of the εV1-2 peptide (n=6; labeled “S-εV” on FIG. 13).
# To examine whether protein kinase C modulates the processes by which a brief inflammatory event causes prolonged hyperalgesia many days later, rats received carrageenan and 1 μg BIM injections at the same time. Hyperalgesia was measured 72 hours later, when the rats were treated PGE2. […] Therefore, administration of an inhibitor of PKC either at approximately the same time as the inflammatory agent giving rise to chronic, prolonged hyperalgesia or at about the same time as the hyperalgesia-inducing stimulus can lessen such chronic hyperalgesia.
# [11] = system: PGE2-induced hyperalgesia; experiment: PGE2-induced mechanical hyperalgesia, paw withdrawal threshold; format: in vivo, rat; conditions: PGE2 100 ng; for Effect on PGE2-induced hyperalgesia: rat hindpaw, mechanical stimulus
# Experimental: The roles of PKC, protein kinase A (“PKA”) and the μ-opioid receptor in mediating epinephrine-induced hyperalgesia were assessed by measuring the effects of: Rp-adenosine 3′, 5′-cyclic monophosphate (“Rp-cAMPs”) and WIPTIDE, both inhibitors of PKA; SQ22536, an inhibitor of adenylyl cyclase, an enzyme activated by PKA; bisindolymaleimide (“BIM”), a nonselective inhibitor of PKC isozymes; and [D-Ala^2, N-Me-Phe^4, Gly^5-ol]-enkephalin (“DAMGO”), μ-opioid receptor agonist. The dose for each inhibitor was 1 μg, except for WIPTIDE, which was administered in a 100 ng dose. DAMGO was co-injected with epinephrine whereas the other inhibitors were applied 15 minutes prior to epinephrine injection.
# For mechanical nociceptive testing, the nociceptive flexion reflex was quantified using an Ugo Basile analgesymeter that applies a constantly increasing force measured in grams (Stoelting, Chicago, Ill.; K. O. Aley, J. D. Levine, J. Neurosci. 17, 8018-23 (1997)). The mean basal mechanical threshold for rats used in these experiments was 105.3+/−2.8 grams. The effects of hyperalgesia-inducing agents epinephrine (100 ng) and PGE2 (100 ng) on mechanical nociceptive thresholds were determined by measuring paw withdrawal frequencies at 15, 20, and 25 minutes after administration of the hyperalgesic agent and then calculating the mean of these three readings.
# [12] = system: formalin-induced hyperalgesia; conditions: earlier studies; cited from earlier work
# [13] = system: PGE2-induced hyperalgesia; conditions: earlier studies; cited from earlier work
# [14] = similar dose, normal rat, earlier studies; cited from earlier work
# [15] = 10 μM propranolol 30 seconds prior to and with 1 μM epinephrine
# [16] = after 1 μg epinephrine injection
compound,measurement,setting,value
CC(C)NCC(O)COc1cccc2ccccc12 (stereo not shown) [propranolol],Effect on isoproterenol-induced hyperalgesia,[1],significantly attenuated
same,Effect on epinephrine-induced potentiation of TTX-RINa,[2],eliminated this potentiation
same,First-spike latency after epinephrine addition,[3]; [15],233 ± 10 ms
same,Spike number after epinephrine addition,[3]; [15],1.3±0.2
same,Effect on epinephrine-induced increase in spike number and decrease in first-spike latency,"[3]; 10 μM propranolol, 1 μM epinephrine",abolished
same,Effect on epinephrine-induced hyperalgesia,[4],significantly attenuated
Nc1ncnc2c1ncn2C1CCCO1 (stereo not shown) [SQ22536],Percentage decrease in nociceptive threshold in response to PGE2,[5],10.0 ± 2.9 %
same,Percentage decrease in nociceptive threshold in response to epinephrine,[4],9.5 ± 2.4 %
CC[C@]1(O)C[C@H]2CN(CCc3c([nH]c4ccccc34)[C@@](C(=O)OC)(c3cc4c(cc3OC)N(C=O)[C@H]3[C@@](O)(C(=O)OC)[C@H](OC(C)=O)[C@]5(CC)C=CCN6CC[C@]43[C@@H]65)C2)C1 [Vincristine],Effect on mechanical nociceptive thresholds,[6],acute dose-dependent decrease
same,Motor deficits,[7],did not show any significant motor deficits
"CCCCC[C@H](O)/C=C/[C@H]1[C@H](O)CC(=O)[C@@H]1C/C=C\CCCC(=O)O [PGE2, prostaglandin E2]",Percent-withdrawal response to VFH stimulus,wild-type mice,dramatically increased
"CN(C)CCCn1cc(C2=C(c3c[nH]c4ccccc34)C(=O)NC2=O)c2ccccc21 [BIM, bisindolymaleimide I]",Percentage decrease in nociceptive threshold in response to isoproterenol,"[1]; isoproterenol 100 ng, BIM 1 μg, WIPTIDE 0.1 μg",7.1 ± 2.4 %
same,Effect on isoproterenol-induced hyperalgesia,[1],significantly attenuated
same,Effect on epinephrine-induced potentiation of TTX-RINa,[2],significantly decreased
same,Effect on prolonged hyperalgesia on PGE2 treatment after carrageenan,[8],attenuated
same,Effect on diabetes-induced decrease in nociceptive threshold,[9],somewhat greater reduction in the percentage decrease in nociceptive threshold than PKCε I; also recorded: markedly reduced
same,Effect on acute hyperalgesia induced by carrageenan,[10],attenuated
same,Percentage decrease in nociceptive threshold in response to epinephrine,[4],4.6 ± 2.1 %
same,Effect on epinephrine-induced hyperalgesia,[4],inhibits epinephrine-induced hyperalgesia to a similar extent as εV1-2
same,Percentage decrease in nociceptive threshold in response to PGE2,"[11]; BIM 1 μg, WIPTIDE 0.1 μg",33.4 ± 4.1%
same,Effect on PGE2-induced hyperalgesia,[11],no effect
"CC(C)NCC(O)c1ccc(O)c(O)c1 (stereo not shown) [Isoproterenol, isoproterenol]",Hyperalgesia produced in the absence of epinephrine,[1]; intradermal injection,dose-dependent hyperalgesia
same,Percentage decrease in nociceptive threshold in response to isoproterenol alone,[1]; isoproterenol 100 ng alone,25.8 ± 0.9%
WIPTIDE,Effect on isoproterenol-induced hyperalgesia,[1],almost completely abolished
same,Effect on PGE2-induced hyperalgesia,[11],significantly attenuated
COc1ccc2c(c1)c(CC(=O)O)c(C)n2C(=O)c1ccc(Cl)cc1 [indomethacin],Effect on epinephrine-induced hyperalgesia,[4],Neither indomethacin treatment nor sympathectomy had any effect
"Nc1ncnc2c1ncn2[C@@H]1O[C@@H]2CO[P@@](O)(=S)O[C@H]2[C@H]1O [Rp-cAMPs, Rp-adenosine 3′, 5′-cyclic monophosphate]",Effect on epinephrine-induced potentiation of TTX-RINa,[2],abolished
Cc1ccc(N(CC2=NCCN2)c2cccc(O)c2)cc1 [phentolamine],Effect on formalin-induced hyperalgesia,[12],significantly reversed
same,Effect on the ability of rolipram to prolong PGE2-induced hyperalgesia,[13],inhibited
same,Effect on basal paw threshold,[14],no effect
same,Effect on epinephrine-induced hyperalgesia,[4],did not significantly affect
"CNC[C@H](O)c1ccc(O)c(O)c1 [Epinephrine, epinephrine]",Effect on TTX-RINa,[2]; epinephrine 1 μM,marked potentiation
same,Percent-withdrawal response to VFH stimulus,wild-type mice,dramatically increased
same,Duration of hyperalgesia,[4]; [16],approximately 2 hours
same,Onset latency of hyperalgesia (significant),[4]; [16],2 min
same,Time to peak hyperalgesic effect,[4]; [16],≤ 5 min
same,Effect on paw withdrawal threshold,"[4]; intradermal 1 ng to 1 μg, dorsal hindpaw",dose-dependent decrease
